Several values for one entry are separate records, joined by “and”; a condition that tells them apart may be missing. Equal values may be shown once. Inconclusive results and toxic doses are left out.
Test system: CD2F1 mice, L1210 leukemia ip, survival T/C
Assay: NCI In Vivo Anticancer Drug Screen. Data for tumor model L1210 Leukemia (intraperitoneal) in CD2F1 (CDF1) mice
Details: higher = longer survival
Procedure, shortened: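 Activity against a transplanted murine tumor was judged by comparing the compound group with a vehicle group. The outcome in the treated animals was divided by that in the controls.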

[1] = endpoint: mean survival time, dose: 100.0 mg/kg/injection, schedule: Q01DX009 (ip), vehicle: saline with Tween-80
[2] = endpoint: mean survival time, dose: 200.0 mg/kg/injection, schedule: Q01DX009 (ip), vehicle: saline with Tween-80
[3] = endpoint: mean survival time, dose: 400.0 mg/kg/injection, schedule: Q01DX009 (ip), vehicle: saline with Tween-80
[4] = endpoint: mean survival time, dose: 100.0 mg/kg/injection, schedule: Q04DX002 (ip), vehicle: saline with Tween-80
[5] = endpoint: mean survival time, dose: 200.0 mg/kg/injection, schedule: Q04DX002 (ip), vehicle: saline with Tween-80
[6] = endpoint: mean survival time, dose: 400.0 mg/kg/injection, schedule: Q04DX002 (ip), vehicle: saline with Tween-80
[7] = endpoint: mean survival time, dose: 100.0 mg/kg/injection, schedule: Q04DX003 (ip), vehicle: saline with Tween-80
[8] = endpoint: mean survival time, dose: 200.0 mg/kg/injection, schedule: Q04DX003 (ip), vehicle: saline with Tween-80
[9] = endpoint: mean survival time, dose: 400.0 mg/kg/injection, schedule: Q04DX003 (ip), vehicle: saline with Tween-80

Cc1ccc(C(=O)[O][Hg][CH2]C2COC([CH2][Hg][O]C(=O)c3ccc(C)cc3)CO2)cc1 (centres undefined)
T/C (endpoint: mean survival time, dose: 3.12 mg/kg/injection, schedule: Q01DX009 (ip), vehicle: Klucel (hydroxypropylcellulose) (HPC)): 100 % of control and 106 % of control
T/C (endpoint: mean survival time, dose: 6.25 mg/kg/injection, schedule: Q01DX009 (ip), vehicle: Klucel (hydroxypropylcellulose) (HPC)): 101 % of control and 105 % of control
T/C (endpoint: mean survival time, dose: 12.5 mg/kg/injection, schedule: Q01DX009 (ip), vehicle: Klucel (hydroxypropylcellulose) (HPC)): 98 % of control and 108 % of control
T/C (endpoint: mean survival time, dose: 25.0 mg/kg/injection, schedule: Q01DX009 (ip), vehicle: Klucel (hydroxypropylcellulose) (HPC)): 98 % of control and 108 % of control
T/C (endpoint: mean survival time, dose: 50.0 mg/kg/injection, schedule: Q01DX009 (ip), vehicle: Klucel (hydroxypropylcellulose) (HPC)): 104 % of control

O=[N+]([O-])c1ncn[nH]1
T/C [1]: 111 % of control
T/C [2]: 100 % of control
T/C [3]: 92 % of control

CN(C)[C@@H]1C(=O)C(C(=O)NCNC(Cc2ccc(N(CCCl)CCCl)cc2)C(=O)O)=C(O)[C@@]2(O)C(=O)C3=C(O)c4c(O)cccc4[C@@](C)(O)[C@H]3C[C@@H]12 (some centres undefined)
T/C (endpoint: mean survival time, dose: 100.0 mg/kg/injection, schedule: Q01DX001 (ip), vehicle: other): 164 % of control

N#Cc1cn(C2CCCCC2)c2ncccc12
T/C (endpoint: mean survival time, dose: 100.0 mg/kg/injection, schedule: Q04DX003 (ip), vehicle: saline): 113 % of control
T/C (endpoint: mean survival time, dose: 200.0 mg/kg/injection, schedule: Q04DX003 (ip), vehicle: saline): 97 % of control

CCCCCCCSc1nc2ccccc2s1
T/C [4]: 95 % of control
T/C [5]: 98 % of control
T/C [6]: 90 % of control

CN(C)OC(=O)Nc1ccc([N+](=O)[O-])cc1
T/C [4]: 97 % of control
T/C [5]: 112 % of control
T/C [6]: 108 % of control

CCN=C(N)/N=C(\N)C(Cl)(Cl)Cl
T/C (endpoint: mean survival time, dose: 100.0 mg/kg/injection, schedule: Q01DX001 (ip), vehicle: saline): 101 % of control
T/C (endpoint: mean survival time, dose: 200.0 mg/kg/injection, schedule: Q01DX001 (ip), vehicle: saline): 96 % of control
T/C (endpoint: mean survival time, dose: 400.0 mg/kg/injection, schedule: Q01DX001 (ip), vehicle: saline): 90 % of control

CC(=O)N1CCCCC1C/C(C)=N/O (centres undefined)
T/C [7]: 105 % of control
T/C [8]: 95 % of control
T/C [9]: 109 % of control

ClC1CCC[N-]C1.ClC1CCC[N-]C1.[Cl][Pt+2][Cl] (centres undefined)
T/C (endpoint: mean survival time, dose: 0.78 mg/kg/injection, schedule: Q01DX009 (ip), vehicle: saline): 103 % of control
T/C (endpoint: mean survival time, dose: 1.56 mg/kg/injection, schedule: Q01DX009 (ip), vehicle: saline): 94 % of control
T/C (endpoint: mean survival time, dose: 3.13 mg/kg/injection, schedule: Q01DX009 (ip), vehicle: saline): 102 % of control
T/C (endpoint: mean survival time, dose: 6.25 mg/kg/injection, schedule: Q01DX009 (ip), vehicle: saline): 96 % of control
T/C (endpoint: mean survival time, dose: 12.5 mg/kg/injection, schedule: Q01DX009 (ip), vehicle: saline): 89 % of control
T/C (endpoint: mean survival time, dose: 50.0 mg/kg/injection, schedule: Q01DX009 (ip), vehicle: saline with Tween-80): 108 % of control
T/C [1]: 95 % of control

O=C(CC1CCCCN1)CC1CCCCN1 (centres undefined)
T/C (endpoint: median survival time, dose: 25.0 mg/kg/injection, schedule: Q04DX003 (ip), vehicle: saline): 100 % of control
T/C (endpoint: median survival time, dose: 50.0 mg/kg/injection, schedule: Q04DX003 (ip), vehicle: saline): 100 % of control
T/C (endpoint: median survival time, dose: 100.0 mg/kg/injection, schedule: Q04DX003 (ip), vehicle: saline): 90 % of control
T/C (endpoint: median survival time, dose: 200.0 mg/kg/injection, schedule: Q04DX003 (ip), vehicle: saline): 90 % of control

N#CCc1ccccc1-c1ccccc1CC#N
T/C (endpoint: mean survival time, dose: 5.0 mg/kg/injection, schedule: Q01DX001 (ip), vehicle: other): 106 % of control
T/C (endpoint: mean survival time, dose: 10.0 mg/kg/injection, schedule: Q01DX001 (ip), vehicle: other): 100 % of control
T/C (endpoint: mean survival time, dose: 20.0 mg/kg/injection, schedule: Q01DX001 (ip), vehicle: other): 96 % of control
T/C (endpoint: mean survival time, dose: 40.0 mg/kg/injection, schedule: Q01DX001 (ip), vehicle: other): 104 % of control

Cc1sc2ccccc2c2nc3ccccc3c1-2
T/C [1]: 106 % of control
T/C [2]: 104 % of control
T/C [3]: 107 % of control

CCOC(=O)CC1CCCCC1CC(=O)OCC (centres undefined)
T/C (endpoint: mean survival time, dose: 37.5 mg/kg/injection, schedule: Q01DX009 (ip), vehicle: saline): 95 % of control
T/C (endpoint: mean survival time, dose: 75.0 mg/kg/injection, schedule: Q01DX009 (ip), vehicle: saline): 98 % of control
T/C (endpoint: mean survival time, dose: 75.0 mg/kg/injection, schedule: Q04DX003 (ip), vehicle: saline): 97 % of control
T/C (endpoint: mean survival time, dose: 150.0 mg/kg/injection, schedule: Q01DX009 (ip), vehicle: saline): 100 % of control
T/C (endpoint: mean survival time, dose: 150.0 mg/kg/injection, schedule: Q04DX003 (ip), vehicle: saline): 103 % of control
T/C (endpoint: mean survival time, dose: 300.0 mg/kg/injection, schedule: Q04DX003 (ip), vehicle: saline): 101 % of control

CC1(C)CN1P(=S)(N1CC1(C)C)N1CC1(C)C (centres undefined)
T/C (endpoint: mean survival time, dose: 338.0 mg/kg/injection, schedule: Q01DX001 (ip), vehicle: other): 190 % of control and 277 % of control

C=CCOc1ccccc1C(C)=O
T/C [1]: 104 % of control
T/C [2]: 107 % of control
T/C [3]: 107 % of control

CC(C)[C@]12O[C@H]1[C@@H]1O[C@]13[C@]1(O[C@H]1C[C@H]1C4=C(CC[C@@]13C)C(=O)OC4)[C@@H]2O
T/C (endpoint: mean survival time, dose: 0.8 micrograms/kg/injection, schedule: Q01DX009 (ip), vehicle: saline + alcohol): 96 % of control
T/C (endpoint: mean survival time, dose: 1.6 micrograms/kg/injection, schedule: Q01DX009 (ip), vehicle: saline + alcohol): 91 % of control
T/C (endpoint: mean survival time, dose: 6.3 micrograms/kg/injection, schedule: Q01DX009 (ip), vehicle: saline + alcohol): 93 % of control
T/C (endpoint: mean survival time, dose: 12.5 micrograms/kg/injection, schedule: Q01DX009 (ip), vehicle: saline + alcohol): 95 % of control
T/C (endpoint: mean survival time, dose: 25.0 micrograms/kg/injection, schedule: Q01DX009 (ip), vehicle: saline + alcohol): 96 % of control
T/C (endpoint: mean survival time, dose: 50.0 micrograms/kg/injection, schedule: Q01DX009 (ip), vehicle: saline + alcohol): 90 % of control
T/C (endpoint: mean survival time, dose: 100.0 micrograms/kg/injection, schedule: Q01DX009 (ip), vehicle: saline + alcohol): 110 % of control
T/C (endpoint: median survival time, dose: 0.02 mg/kg/injection, schedule: Q03HX024 (ip), vehicle: saline + alcohol): 111 % of control
T/C (endpoint: median survival time, dose: 0.03 mg/kg/injection, schedule: Q03HX024 (ip), vehicle: saline + alcohol): 120 % of control
T/C (endpoint: median survival time, dose: 0.06 mg/kg/injection, schedule: Q01DX009 (ip), vehicle: saline + alcohol): 104 % of control
T/C (endpoint: median survival time, dose: 0.06 mg/kg/injection, schedule: Q01DX009 (sc), vehicle: saline + alcohol): 112 % of control
T/C (endpoint: median survival time, dose: 0.13 mg/kg/injection, schedule: Q01DX009 (ip), vehicle: saline + alcohol): 120 % of control
T/C (endpoint: median survival time, dose: 0.13 mg/kg/injection, schedule: Q01DX009 (sc), vehicle: saline + alcohol): 104 % of control
T/C (endpoint: median survival time, dose: 0.25 mg/kg/injection, schedule: Q04DX003 (ip), vehicle: saline + alcohol): 112 % of control
T/C (endpoint: median survival time, dose: 0.25 mg/kg/injection, schedule: Q08DX002 (ip), vehicle: saline + alcohol): 107 % of control
T/C (endpoint: median survival time, dose: 0.5 mg/kg/injection, schedule: Q01DX001 (sc), vehicle: saline + alcohol): 105 % of control
T/C (endpoint: median survival time, dose: 0.5 mg/kg/injection, schedule: Q04DX003 (ip), vehicle: saline + alcohol): 120 % of control
T/C (endpoint: median survival time, dose: 0.5 mg/kg/injection, schedule: Q08DX002 (ip), vehicle: saline + alcohol): 115 % of control
T/C (endpoint: median survival time, dose: 1.0 mg/kg/injection, schedule: Q01DX001 (sc), vehicle: saline + alcohol): 107 % of control
T/C (endpoint: median survival time, dose: 1.0 mg/kg/injection, schedule: Q04DX003 (ip), vehicle: saline + alcohol): 110 % of control
T/C (endpoint: median survival time, dose: 1.0 mg/kg/injection, schedule: Q08DX002 (ip), vehicle: saline + alcohol): 116 % of control

O=C1NN=C2CCCCC12 (centres undefined)
T/C (endpoint: mean survival time, dose: 100.0 mg/kg/injection, schedule: Q01DX009 (ip), vehicle: Klucel (hydroxypropylcellulose) (HPC)): 97 % of control
T/C (endpoint: mean survival time, dose: 200.0 mg/kg/injection, schedule: Q01DX009 (ip), vehicle: Klucel (hydroxypropylcellulose) (HPC)): 96 % of control
T/C (endpoint: mean survival time, dose: 400.0 mg/kg/injection, schedule: Q01DX009 (ip), vehicle: Klucel (hydroxypropylcellulose) (HPC)): 102 % of control

O=C(OC(C(=O)O)C(OC(=O)c1ccccc1)C(=O)O)c1ccccc1 (centres undefined) (tested in a mixture with another compound)
T/C (endpoint: mean survival time, dose: 50.0 mg/kg/injection, schedule: Q04DX002 (ip), vehicle: saline with Tween-80): 92 % of control
T/C (endpoint: mean survival time, dose: 100.0 mg/kg/injection, schedule: Q01DX001 (ip), vehicle: saline with Tween-80): 105 % of control
T/C [4]: 106 % of control
T/C [7]: 101 % of control
T/C (endpoint: mean survival time, dose: 200.0 mg/kg/injection, schedule: Q01DX001 (ip), vehicle: saline with Tween-80): 100 % of control
T/C [5]: 95 % of control
T/C [8]: 106 % of control
T/C (endpoint: mean survival time, dose: 400.0 mg/kg/injection, schedule: Q01DX001 (ip), vehicle: saline with Tween-80): 97 % of control
T/C [9]: 98 % of control
